Like-named read-outs stand apart in the source and are kept apart here.
Experiments:
SARS-CoV-2 = assay: Inhibitory activity of cytopathic effect (CPE) in HEK293T/ACE2-TMPRSS2 cells; type: cell-based
SARS-CoV-2 3CL protease = SARS-CoV-2 3CL protease (Severe acute respiratory syndrome coronavirus 2, UniProt P0DTD1); assay: Inhibitory activity test against SARS-CoV-2 3CL proteases; type: biochemical
[1] = Severe acute respiratory syndrome coronavirus 2, HEK-293T, 72 h
[2] = IC50 (50% SARS-CoV-2 3CL protease inhibitory concentration)
[3] = Severe acute respiratory syndrome coronavirus 2, HEK-293T, 72 h, 50% SARS-CoV-2 infected cell death inhibitory concentration, HEK293T/ACE2-TMPRSS2 cells, CellTiter-Glo 2.0 after 3 days culture, read-out: EC50
[4] = read-out: IC50 (50% SARS-CoV-2 3CL protease inhibitory concentration)
[5] = Severe acute respiratory syndrome coronavirus 2, HEK-293T, 72 h, HEK293T/ACE2-TMPRSS2 cells, cultured 3 days, CellTiter-Glo 2.0 luminescence, read-out: EC50 (50% SARS-CoV-2 infected cell death inhibitory concentration)
[6] = Severe acute respiratory syndrome coronavirus 2, HEK-293T, 72 h, read-out: EC50 (50% SARS-CoV-2 infected cell death inhibitory concentration)

SMILES | IC50 (SARS-CoV-2 3CL protease; [4]) [nM] | EC50 (SARS-CoV-2; [5]) [nM] | also measured
COc1cc(N2[C@@H]3CC[C@H]2CNC3)cc2c1c(=O)n(-c1cnc3cc(F)ccn13)c(=O)n2Cc1cc(Cl)c(F)cc1C [Compound I-0650] | – | – | EC50 (SARS-CoV-2; [1]): 27.3 nM; IC50 (SARS-CoV-2 3CL protease; [2]): 1.2 nM
COc1nc(NC(C)C)cc2c1c(=O)n(-c1cnc3cc(F)ccn13)c(=O)n2-c1ccc(F)c(Cl)c1 [Compound I-0651] | 8.5 | – | EC50 (SARS-CoV-2; [3]): 13 nM
COc1nc(N2CC[C@@H](C#N)C2)cc2c1c(=O)n(-c1cnc3cc(F)ccn13)c(=O)n2-c1ccc(F)c(Cl)c1 [Compound I-0652] | 1.4 | – | EC50 (SARS-CoV-2; [3]): 7.43 nM
COCCN(C)c1cc2c(c(OC)n1)c(=O)n(-c1cnc3cc(F)ccn13)c(=O)n2-c1ccc(F)c(Cl)c1 [Compound I-0653] | 14 | – | EC50 (SARS-CoV-2; [3]): 11.6 nM
COc1nc(N2CCC(F)(F)C2)cc2c1c(=O)n(-c1cnc3ccc(C#N)cn13)c(=O)n2-c1ccc(F)c(Cl)c1 [Compound I-0654] | < 100 | < 100 | –
COc1nc(N2CCC(F)(F)C2)cc2c1c(=O)n(-c1cnc3cc(F)c(Cl)cn13)c(=O)n2-c1ccc(F)c(Cl)c1 [Compound I-0655] | < 100 | < 100 | –
CCC(=O)c1ccc(Cl)c(-c2cc(OC)c3c(=O)n(Cc4ncn(C)n4)c(=O)n(Cc4cc(F)c(F)c(F)c4)c3c2)c1 [Compound I-0657] | 20 | – | EC50 (SARS-CoV-2; [3]): 76.1 nM
Cc1cncc(-n2c(=O)c3c(n(Cc4cc(F)c(F)c(F)c4)c2=O)CN(c2cc(C#N)ccc2Cl)CC3)c1 [Compound I-0658] | 100 to 1000 | 100 to 1000 | –
COc1cc(-c2cc(C#N)ccc2Cl)cc2c1c(=O)n(-c1cnc3ccccn13)c(=O)n2Cc1cc(F)c(F)c(F)c1 [Compound I-0660] | < 100 | < 100 | –
COc1cc(-c2cc(C#N)ccc2Cl)cc2c1c(=O)n(-c1cnc3ccccn13)c(=O)n2Cc1cc(F)c(F)c(F)c1 [Compound I-0661] | < 100 | – | EC50 (SARS-CoV-2; HEK293T/ACE2-TMPRSS2 cells, cultured 3 days, CellTiter-Glo 2.0 luminescence, read-out: EC50 (50% SARS-CoV-2 infected cell death inhibitory concentration)): < 100 nM
COc1cc(N2[C@@H]3CC[C@H]2CNC3)cc2c1c(=O)n(-c1cnc3ccccn13)c(=O)n2Cc1cc(F)c(F)c(F)c1 [Compound I-0666] | – | – | EC50 (SARS-CoV-2; [6]): 100 to 1000 nM; IC50 (SARS-CoV-2 3CL protease; [2]): < 100 nM
COc1nc(N2[C@@H]3CC[C@H]2CNC3)cc2c1c(=O)n(-c1cnc3ccc(Cl)cn13)c(=O)n2Cc1cc(F)c(F)c(F)c1 [Compound I-0671] | – | – | EC50 (SARS-CoV-2; [1]): 21 nM; IC50 (SARS-CoV-2 3CL protease; [2]): 3.3 nM
COc1nc(-c2cc(C#N)ccc2Cl)cc2c1c(=O)n(-c1cnc3cc(F)ccn13)c(=O)n2Cc1cc(F)c(F)c(F)c1 [Compound I-0672] | < 100 | < 100 | –
COc1nc(N2CC[C@@H](F)C2)cc2c1c(=O)n(-c1cnc3cc(F)ccn13)c(=O)n2Cc1cc(F)c(F)c(F)c1 [Compound I-0673] | < 100 | < 100 | –
COc1nc(-c2cc(C#N)ccc2Cl)cc2c1c(=O)n(-c1cnc3ccc(F)cn13)c(=O)n2Cc1cc(F)c(F)c(F)c1 [Compound I-0680] | < 100 | < 100 | –
Cn1c(-c2cc(C#N)ccc2Cl)cc2c(c1=O)c(=O)n(-c1cnc3ccc(F)cn13)c(=O)n2Cc1cc(F)c(F)c(F)c1 [Compound I-0681] | < 100 | < 100 | –
COc1nc(N2[C@@H]3CC[C@H]2CNC3)cc2c1c(=O)n(-c1cnc3cc(F)ccn13)c(=O)n2Cc1cc(F)c(F)c(F)c1 [Compound I-0682] | – | – | EC50 (SARS-CoV-2; [6]): < 100 nM; IC50 (SARS-CoV-2 3CL protease; [2]): < 100 nM
COc1nc(N2[C@@H]3CC[C@H]2CNC3)cc2c1c(=O)n(-c1cnc3cc(Cl)ccn13)c(=O)n2Cc1cc(F)c(F)c(F)c1 [Compound I-0683] | – | – | EC50 (SARS-CoV-2; [1]): 45.4 nM; IC50 (SARS-CoV-2 3CL protease; [2]): 9.9 nM
Cn1cnc(Cn2c(=O)c3ncc(N4C[C@H]5C[C@@H]4CN5)nc3n(Cc3cc(F)c(F)c(F)c3)c2=O)n1 [Compound I-0684] | 370 | – | EC50 (SARS-CoV-2; [3]): 4580 nM
Cn1cnc(Cn2c(=O)c3nc(OCC#N)c(-c4cc(C#N)ccc4Cl)cc3n(Cc3cc(F)c(F)c(F)c3)c2=O)n1 [Compound I-0685] | 28 | – | EC50 (SARS-CoV-2; [3]): 82.2 nM
CCCn1c(-c2cc(C#N)ccc2Cl)cc2c(c1=O)c(=O)n(-c1cncc(Cl)c1)c(=O)n2Cc1cc(F)c(F)c(F)c1 [Compound I-0686] | 1.7 | – | EC50 (SARS-CoV-2; [3]): 22.4 nM
CCOc1nc2c(=O)n(Cc3ncn(C)n3)c(=O)n(Cc3cc(F)c(F)c(F)c3)c2cc1-c1cc(C#N)ccc1Cl [Compound I-0692] | < 100 | < 100 | –

SMILES | IC50 (SARS-CoV-2 3CL protease; [4]) [nM] | EC50 (SARS-CoV-2; [5]) [nM] | also measured
Cn1cnc(Cn2c(=O)c3c(cc(-c4cc(C#N)ccc4Cl)c[n+]3[O-])n(Cc3cc(F)c(F)c(F)c3)c2=O)n1 [Compound I-0697] | 100 to 1000 | 1000 to 10000 | –
COc1nc2c(=O)n(Cc3ncn(C)n3)c(=O)n(Cc3cc(F)c(F)c(F)c3)c2cc1-c1cc(C#N)ccc1Cl [Compound I-0699] | < 100 | < 100 | –
COc1nc2c(=O)n(Cc3ncn(C)n3)c(=O)n(Cc3cc(F)c(F)c(Cl)c3)c2cc1-c1cc2c(cc1Cl)NC(=O)C2 [Compound I-0700] | 0.92 | – | EC50 (SARS-CoV-2; [3]): 24.5 nM
COc1nc2c(=O)n(Cc3ncn(C)n3)c(=O)n(Cc3cc(F)c(F)c(Cl)c3)c2cc1-c1cc(C(C)(C)O)ccc1Cl [Compound I-0701] | 5 | – | EC50 (SARS-CoV-2; [3]): 16 nM
C=Cc1nc2c(=O)n(Cc3ncn(C)n3)c(=O)n(Cc3cc(F)c(F)c(F)c3)c2cc1-c1cc(C#N)ccc1Cl [Compound I-0705] | < 100 | < 100 | –
COc1c(-c2cc(C#N)ccc2Cl)cc2c(c(=O)n(Cc3ncn(C)n3)c(=O)n2Cc2cc(F)c(F)c(F)c2)[n+]1[O-] [Compound I-0709] | 100 to 1000 | 1000 to 10000 | –
Cn1cnc(Cn2c(=O)c3c4nc[nH]c4c(-c4cc(C#N)ccc4Cl)cc3n(Cc3cc(F)c(F)c(F)c3)c2=O)n1 [Compound I-0712] | 100 to 1000 | 100 to 1000 | –
COc1nc2c(=O)n(Cc3ncn(C)n3)c(=O)n(Cc3cc(Cl)ccc3Cl)c2cc1-c1cc(C#N)ccc1Cl [Compound I-0713] | < 100 | 100 to 1000 | –
COc1nc2c(=O)n(Cc3ncn(C)n3)c(=O)n(Cc3cc(Cl)ccc3C)c2cc1-c1cc(C#N)ccc1Cl [Compound I-0717] | < 100 | < 100 | –
COc1nc2c(=O)n(Cc3ncn(C)n3)c(=O)n(Cc3cc(F)c(F)c(C#N)c3)c2cc1-c1cc(C#N)ccc1Cl [Compound I-0721] | < 100 | < 100 | –
COc1nc2c(=O)n(Cc3ncn(C)n3)c(=O)n(Cc3cc(C#N)c(F)cc3Cl)c2cc1-c1cc(C#N)ccc1Cl [Compound I-0722] | < 100 | < 100 | –
COc1nc2c(=O)n(Cc3ncn(C)n3)c(=O)n(Cc3cc(C#N)c(F)cc3C)c2cc1-c1cc(C#N)ccc1Cl [Compound I-0723] | < 100 | < 100 | –
COc1nc2c(=O)n(Cc3ncn(C)n3)c(=O)n(Cc3ccc(F)c(Cl)c3)c2cc1-c1cc(C#N)ccc1Cl [Compound I-0726] | < 100 | < 100 | –
Cn1c(-c2cc(C#N)ccc2Cl)cc2c(c1=O)c(=O)n(-c1cnc3cc(F)ccn13)c(=O)n2Cc1cc(F)c(F)c(F)c1 [Compound I-0727] | 1.1 | – | EC50 (SARS-CoV-2; [3]): 102 nM
COc1nc(N2CCC(F)(F)C2)cc2c1c(=O)n(-c1cnc3cc(F)ccn13)c(=O)n2-c1ccc(F)c(Cl)c1 [Compound I-0728] | 5.1 | – | EC50 (SARS-CoV-2; [3]): 7.65 nM
COc1nc(N2[C@@H]3CC[C@H]2CNC3)cc2c1c(=O)n(-c1cnc3cc(F)ccn13)c(=O)n2-c1ccc(F)c(Cl)c1 [Compound I-0729] | – | – | EC50 (SARS-CoV-2; [6]): < 100 nM; IC50 (SARS-CoV-2 3CL protease; [2]): < 100 nM
COc1nc(N2CC[C@@H](O)C2)cc2c1c(=O)n(-c1cnc3cc(F)ccn13)c(=O)n2Cc1cc(F)c(F)c(F)c1 [Compound I-0730] | < 100 | < 100 | –
COc1nc(N2CC[C@@H](OC)C2)cc2c1c(=O)n(-c1cnc3cc(F)ccn13)c(=O)n2Cc1cc(F)c(F)c(F)c1 [Compound I-0731] | < 100 | < 100 | –
COc1nc(N2CC[C@@H](C#N)C2)cc2c1c(=O)n(-c1cnc3cc(F)ccn13)c(=O)n2Cc1cc(F)c(F)c(F)c1 [Compound I-0732] | < 100 | < 100 | –
COc1nc(N2CC[C@@H](O)C2)cc2c1c(=O)n(-c1cnc3cc(F)ccn13)c(=O)n2Cc1cc(F)c(F)c(Cl)c1 [Compound I-0734] | < 100 | < 100 | –
COc1nc(N2CC[C@@H](OC)C2)cc2c1c(=O)n(-c1cnc3cc(F)ccn13)c(=O)n2Cc1cc(F)c(F)c(Cl)c1 [Compound I-0735] | < 100 | < 100 | –

Reference: patent US20240400560A1, “BICYCLIC HETEROCYCLIC DERIVATIVE HAVING VIRAL GROWTH INHIBITORY ACTIVITY AND PHARMACEUTICAL COMPOSITION CONTAINING SAME” (Shionogi & Co., Ltd., priority 2021, published 2024)
